pIC50: −log10 of the molar value.
Legend:
[1] = Tmax in male Sprague-Dawley rat at 10 mg/kg, po measured upto 30 hrs by LC-MS/MS analysis; type: ADME, organism-based; conditions: in vivo
[2] = test system: KMS-11; experiment: Antiproliferative activity against human KMS-11 cells assessed as inhibition of cell growth incubated for 72 hrs by celltiter-glo assay; type: functional, cell-based; conditions: KMS-11, 72 h
[3] = AUC (0 to t) in male Sprague-Dawley rat at 15 mg/kg, po measured upto 30 hrs by LC-MS/MS analysis; type: ADME, organism-based; conditions: in vivo
[4] = Toxicity in BALB/c mouse assessed as side effect at 60 mg/kg, po administered once daily for 21 days; type: organism-based; conditions: in vivo, 504 h, time 21 day
[5] = test system: MM1.S; experiment: Antiproliferative activity against human MM1.S cells assessed as inhibition of cell growth incubated for 72 hrs by celltiter-glo assay; type: functional, cell-based

Tmax [1]: 18 min
AUC(0-t) at 30 h [3]: 5080 ng·h/mL
pIC50 [5]: 7.06
SMILES: CONC(=O)/C(=C/n1cnc(-c2cc(C(F)(F)F)cc(C(F)(F)F)c2)n1)c1cncnc1
pIC50 [2]: 6.13
Activity [4]: Non-toxic

— ChEMBL document CHEMBL6083277, “Discovery of SZJK-0421: A Novel Potent, Low Toxicity, Selective Second Generation of CRM1 Inhibitor for the Treatment of Both Hematological and Solid Tumors” (J Med Chem, 2024)
